Reference: patent publication US5106610A, “Method for determining the diuretic potency of candidate drugs as inhibitors of the antidiuretic hormone-elicited water channel” (Childrens Medical Center Corporation, priority 1989, dated 1992)

Columns and labels:
ADH water channels = test: Proton permeability (PH+) of F-dextran loaded endocytic vesicles containing ADH water channels, stopped-flow fluorescence after imposed pH gradient; type: biochemical, Bufo marinus
From the text: Endocytic vesicles from the bladder of Dominican toads were ADH stimulated and loaded with fluoroescein bound to dextran (F-dextran) following the procedures of Harris et.al., "Apical Membrane Vesicles of ADH-Stimulated Toad Bladder Are Highly Water Permeable,"Am. J. Physiol. In Press, (1989); Harris, H. W., et.al., "Fluorescent Markers to Study Membrane Retrieval in Antidiuretic Hormone-Treated Toad Urinary Bladder," Am. J. Physiol., 251:C274-C284 (1986). Briefly, the procedures were as follows.
Dominican toads (Bufo marinus), obtained from National Reagents, Bridgeport, CT, were employed. Urinary bladders of Bufo marinus were prepared and mounted on cannulas as small sacs. After a 20 minute interval of ADH stimulation (50 mU/ml), the apical surfaces of bladders were exposed to solutions containing 50 mg/ml of F-dextran (Av. Mol. Wt. 70,000 Daltons) and […], 30 Mm KCl, and […], pH 8.0, for an interval of 5 minutes followed by termination of ADH stimulation and incubation for an additional 10 minutes. The solution containing the F-dextran was then removed, the bladders rinsed to remove all extracellular F-dextran. The intermediate pellet fraction obtained from centrifugation of the cell was used. F-dextran loaded vesicles were washed repeatedly to remove F-dextran and partially purified by differential centrifugation. In the absence of ADH, no detectable fluorescence was present in this vesicle fraction despite apical membrane exposure to F-dextran.
Standard cuvette fluorescence measurements were performed using an SLM-Aminco 500C spectrofluorimeter (excitation wavelength 499 nm). Stopped-flow measurements were performed in a High Tech stopped-flow device (50 msec dead time) connected to a Photon Technologies Alphascan Fluorimeter. One syringe contained a concentrated vesicle suspension and antifluoroscein antibody while the other contained buffer with sufficient HCl to change the final extravesicular pH as indicated. Data from 3-5 determination performed on a single day were averages. Results were fitted to single exponentials and .tau. was converted to permeability using the following equation: […]
where JH + is the flux rate of protons in mole/sec, PH + is the permeability coefficient of protons in cm/sec, ΔC is the concentration gradient for protons across the vesicle membrane at the start of the experiment in mole/cm^3, and A is the surface area of a single F-dextran containing vesicle (7.1×10^-10 cm^2). See Harris, H. W., et.al., "Isolation and Characterization of Specialized Regions of Toad Urinary Bladder Apical Plasma Membrane Involved in the Water Permeability Response to Antidiuretic Hormone," J. Memb. Biol., 96:175-186 (1987). Jh + was calculated by multiplying 1/.tau. by the amount of buffer (in moles) in an individual vesicle (single vesicle volume was 1.41×10^-14 cm^3). .tau. is the mathematical term representing the time for the process to be 2/3 completed. Estimates of vesicle volume and surface area were calculated from dimensions of vesicles loaded with horseradish peroxides (HRP) instead of F-dextran.
The effect of pCMBS on the rate of pH change in F-dextran loaded vesicles was determined. The materials and procedures of Example 1 were employed, except as noted. […] The results are plotted in FIG. 3. As illustrated, preincubation of vesicles with pCMBS inhibited 54% of oH + in F-dextran loaded vesicles. Control pH + was 3.9±0.5×10^-3 cm/sec (n-5; p<0.005 compared to control; unpaired t test). […]

toad bladder [1] = details: NEM pretreatment; cited from earlier work
[2] = tested on: human erythroycte membrane; details: NEM pretreatment; cited from earlier work
toad bladder [3] = details: cited from earlier work

In the case of `CCN1C(=O)C=CC1=O` [NEM, n-ethylmaleimide], the “effect on pH + compared to control (significance)” value (ADH water channels; NEM 2 mM, 1 h pretreatment on ice) is given as “NS compared to control”, the “pH + (proton permeability coefficient) after pretreatment” value (ADH water channels; NEM 2 mM, pretreated 1 h in HEPES buffer on ice, paired control 5.6±0.2×10^-3) is given as 6.2±0.9×10^-3 cm/sec and the “inhibitory effect on water flux across the toad bladder” value (toad bladder [1]) is given as “no inhibitory effect”. For the same molecule, the “inhibitory effect on water flux across human erythrocyte membrane” value [2] was “no inhibitory effect”.

For `O=S(=O)(O)c1cc[c]([Hg][Cl])cc1` [pCMBS, parachloromercuribenzene sulfonate], the “inhibition of oH + (proton permeability) in F-dextran loaded vesicles” value (ADH water channels; 1 mM pCMBS, one hour preincubation at 4° C., vesicles with 17.6 mM HEPES pH 8.0, extravesicular pH lowered to 6.0) was 54%.

For `O=C(CCc1ccc(O)cc1)c1c(O)cc(O)cc1O` [Phloretin], the “effect on apical membrane vesicle JH +” value (ADH water channels; phloretin 30 min prior to assay and present during stopped flow) is listed as “without effect”, the “PH + (proton permeability coefficient) of treated vesicles” value (ADH water channels; vesicles exposed to phloretin 30 min prior to assay, stopped flow in continued presence, paired studies) is listed as 2.6±0.4 ×10^-3 cm/sec and the “effect on ADH-stimulated urea flux in toad bladder” value (toad bladder [3]) is listed as “inhibits”.
